Measurements from US20150361503A1, “METHODS FOR SELECTING THERAPEUTICS FOR TREATMENT OF HER2+ CANCERS” (Merrimack Pharmaceuticals, Inc., priority 2014, published 2015).

Tested on: HER2+ cell lines
Assay: In vitro cell growth assays: drug combination effects (CellTiter-Glo cell viability)
Format: cell-based
Method: Cells (BT474-M3, NCI-N87, NCI-N87-PIK3CA(wt), NCI-N87-PIK3CA(H1047R), NCI-N87-PIK3CA(E454K), COLO-678, KYSE-410, ZR75-1, MDA-MB-361 or MDA-MB-175-VII) are seeded at 700 cells per 384-well plate in 10% FBS cell growth medium and treated with the five drugs, separately or in combination, at […], with and without 5 nM HRG-β1 pre-stimulation (for four hours). Cell viability was determined 72 hours later with CellTiter-Glo® luminescent cell viability assay (Promega).
This panel included cells harboring PI3KCA-activating mutations (both natural and engineered), PTEN deletions, and KRAS-activating mutations, as well as PI3K and MAPK-wild type cells. To clarify and summarize the drug-response relationships, multivariate regression models were parameterized for each cell line, simulating % cell growth inhibition as linear combinations of the five input drug concentrations. Regression coefficients for each drug were grouped by mutational background and the presence or absence of heregulin stimulation, and average values computed (FIG. 4B).

SMILES	sensitivity of PI3K-mutant cells to drug-containing regimens (PI3K-mutant cells (MDA-MB-361, ZR-75-1, and NCI-N87-PIK3CA))	effect of HRG on sensitivity of cells to the drug (cell growth inhibition) (presence of 5 nM exogenous HRG, regardless of genetic background)	sensitivity of wild-type cells to drug-containing regimens (wild-type cells)
NC1(c2ccc(-c3nc4ccn5c(=O)[nH]nc5c4cc3-c3ccccc3)cc2)CCC1 [MK2206]	most sensitive	–	–
CS(=O)(=O)CCNCc1ccc(-c2ccc3ncnc(Nc4ccc(OCc5cccc(F)c5)c(Cl)c4)c3c2)o1 [lapatinib]	–	desensitizes	most sensitive
